Legend:
Type in all cases: cell-based
human TLR8 = molecular target: T1, human TLR8 (Homo sapiens, UniProt Q9NR97); experiment: TLR8 inhibition reporter assay (HEK-Blue SEAP); conditions: HEK-Blue cells overexpressing human TLR8, stimulated with R848 15.9 μM, 22 hour incubation
T1 construct: host or cells: HEK-Blue cells
T1 sequence (Q9NR97 27-1041): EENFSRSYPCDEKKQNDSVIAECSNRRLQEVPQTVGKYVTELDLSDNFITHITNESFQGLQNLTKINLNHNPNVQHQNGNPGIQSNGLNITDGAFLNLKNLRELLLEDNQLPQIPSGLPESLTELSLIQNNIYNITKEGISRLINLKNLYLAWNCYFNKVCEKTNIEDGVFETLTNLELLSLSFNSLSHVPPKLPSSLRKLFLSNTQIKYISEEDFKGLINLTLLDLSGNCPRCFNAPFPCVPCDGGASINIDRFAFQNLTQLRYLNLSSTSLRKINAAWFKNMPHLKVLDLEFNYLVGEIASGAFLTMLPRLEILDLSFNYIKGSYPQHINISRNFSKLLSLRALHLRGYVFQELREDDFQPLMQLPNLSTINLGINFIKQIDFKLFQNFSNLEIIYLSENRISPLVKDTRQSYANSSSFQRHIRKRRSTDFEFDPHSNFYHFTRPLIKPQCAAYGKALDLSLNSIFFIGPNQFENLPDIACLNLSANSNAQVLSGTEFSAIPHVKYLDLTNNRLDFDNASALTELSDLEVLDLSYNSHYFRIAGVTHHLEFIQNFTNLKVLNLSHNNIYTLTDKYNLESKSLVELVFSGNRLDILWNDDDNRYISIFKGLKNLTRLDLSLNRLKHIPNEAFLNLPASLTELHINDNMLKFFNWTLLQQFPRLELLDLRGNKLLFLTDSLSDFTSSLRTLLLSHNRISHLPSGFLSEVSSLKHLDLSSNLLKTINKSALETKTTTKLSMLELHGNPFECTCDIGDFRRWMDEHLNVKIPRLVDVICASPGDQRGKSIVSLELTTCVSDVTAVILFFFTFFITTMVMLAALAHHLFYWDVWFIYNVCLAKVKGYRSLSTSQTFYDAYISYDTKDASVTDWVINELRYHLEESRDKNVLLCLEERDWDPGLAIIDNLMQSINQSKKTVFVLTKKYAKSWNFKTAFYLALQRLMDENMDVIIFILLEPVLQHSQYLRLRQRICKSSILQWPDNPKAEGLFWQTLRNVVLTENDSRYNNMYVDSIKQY
Procedure, shortened: (§1)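 Test compounds, final 0.05 nM–50 μM, pre-treat HEK-Blue human TLR7, TLR8 or TLR9 reporter cells before agonist addition (TLR8 R848 15.9 μM; TLR7 gardiquimod 7.5 μM; TLR9 ODN2006 5 nM). Incubation runs 22 h, 37 °C. SEAP detection gives percent inhibition against DMSO and reference-inhibitor controls.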

human TLR9 = molecular target: T2, human TLR9 (Homo sapiens, UniProt Q9NR96); experiment: TLR9 inhibition reporter assay (HEK-Blue SEAP); conditions: HEK-Blue cells overexpressing human TLR9, stimulated with ODN2006 5 nM, 22 hour incubation
T2 construct: host or cells: HEK-Blue cells
T2 sequence (Q9NR96 26-1032): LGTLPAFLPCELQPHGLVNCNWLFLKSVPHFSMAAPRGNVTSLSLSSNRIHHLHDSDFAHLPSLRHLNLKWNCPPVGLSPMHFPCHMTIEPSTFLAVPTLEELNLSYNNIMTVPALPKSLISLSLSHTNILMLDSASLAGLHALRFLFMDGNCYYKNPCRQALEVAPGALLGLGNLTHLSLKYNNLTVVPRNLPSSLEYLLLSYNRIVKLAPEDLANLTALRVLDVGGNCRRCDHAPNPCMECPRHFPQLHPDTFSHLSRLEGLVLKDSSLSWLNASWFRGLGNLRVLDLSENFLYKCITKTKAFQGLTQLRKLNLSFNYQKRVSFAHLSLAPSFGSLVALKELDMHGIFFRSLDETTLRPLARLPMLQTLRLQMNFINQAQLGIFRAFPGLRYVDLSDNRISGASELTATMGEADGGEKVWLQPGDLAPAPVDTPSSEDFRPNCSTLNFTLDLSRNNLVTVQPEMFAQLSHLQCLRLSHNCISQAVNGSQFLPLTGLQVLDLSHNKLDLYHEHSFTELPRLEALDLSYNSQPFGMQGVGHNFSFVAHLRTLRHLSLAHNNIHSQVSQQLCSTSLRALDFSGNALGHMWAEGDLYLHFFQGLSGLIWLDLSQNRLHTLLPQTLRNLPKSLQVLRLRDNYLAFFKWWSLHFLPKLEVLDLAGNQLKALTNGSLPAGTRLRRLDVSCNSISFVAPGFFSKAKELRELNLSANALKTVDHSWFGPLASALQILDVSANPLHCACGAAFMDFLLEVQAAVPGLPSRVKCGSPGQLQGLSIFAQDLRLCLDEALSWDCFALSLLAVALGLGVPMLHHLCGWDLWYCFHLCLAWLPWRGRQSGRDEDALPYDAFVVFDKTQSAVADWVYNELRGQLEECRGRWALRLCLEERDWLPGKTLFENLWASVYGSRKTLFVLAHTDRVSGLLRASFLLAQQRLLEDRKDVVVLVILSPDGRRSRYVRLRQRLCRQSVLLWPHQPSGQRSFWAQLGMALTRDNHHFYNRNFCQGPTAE
Procedure, shortened: as §1

human TLR7 = molecular target: T3, human TLR7 (Homo sapiens, UniProt Q9NYK1); experiment: TLR7 inhibition reporter assay (HEK-Blue SEAP); conditions: HEK-Blue cells overexpressing human TLR7, stimulated with gardiquimod 7.5 μM, 22 hour incubation
T3 construct: host or cells: HEK-Blue cells
T3 sequence (Q9NYK1 27-1049): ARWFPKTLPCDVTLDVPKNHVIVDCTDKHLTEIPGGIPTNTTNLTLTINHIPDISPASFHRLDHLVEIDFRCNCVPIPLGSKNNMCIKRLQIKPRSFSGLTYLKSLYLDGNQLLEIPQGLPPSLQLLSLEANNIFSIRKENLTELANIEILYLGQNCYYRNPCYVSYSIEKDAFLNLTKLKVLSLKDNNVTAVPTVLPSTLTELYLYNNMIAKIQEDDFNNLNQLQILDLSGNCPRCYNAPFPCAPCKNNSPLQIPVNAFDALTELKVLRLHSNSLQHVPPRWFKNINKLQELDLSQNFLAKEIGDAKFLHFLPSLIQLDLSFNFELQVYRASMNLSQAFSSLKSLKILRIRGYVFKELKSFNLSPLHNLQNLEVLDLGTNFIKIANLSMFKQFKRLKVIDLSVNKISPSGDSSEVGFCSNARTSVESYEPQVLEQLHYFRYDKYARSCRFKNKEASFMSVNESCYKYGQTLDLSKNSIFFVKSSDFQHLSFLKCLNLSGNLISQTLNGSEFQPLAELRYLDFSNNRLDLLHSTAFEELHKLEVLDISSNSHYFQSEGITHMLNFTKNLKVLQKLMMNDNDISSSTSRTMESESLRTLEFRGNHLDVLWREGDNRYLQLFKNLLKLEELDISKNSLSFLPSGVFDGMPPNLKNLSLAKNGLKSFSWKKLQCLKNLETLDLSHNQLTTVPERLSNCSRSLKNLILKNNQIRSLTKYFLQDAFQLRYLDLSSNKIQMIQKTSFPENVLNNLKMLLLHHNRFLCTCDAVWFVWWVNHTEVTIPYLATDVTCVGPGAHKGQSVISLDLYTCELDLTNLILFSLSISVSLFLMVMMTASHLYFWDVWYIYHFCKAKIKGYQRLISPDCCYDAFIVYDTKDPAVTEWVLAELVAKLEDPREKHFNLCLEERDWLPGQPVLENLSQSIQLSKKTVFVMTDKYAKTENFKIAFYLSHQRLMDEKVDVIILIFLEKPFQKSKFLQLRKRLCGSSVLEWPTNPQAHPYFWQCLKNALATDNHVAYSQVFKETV
Procedure, shortened: as §1

| IC50 (human TLR8) [nM] | IC50 (human TLR9) [nM] | IC50 (human TLR7) [nM] | Compound |
| --- | --- | --- | --- |
| 124 | 852 | 14.6 | Cc1c(-c2[nH]c3ccc(OCC4CN(C(=O)CN(C)C)C4)cc3c2C(C)C)cn2cnnc2c1C [Example 108, 1-(3-(((2-(7,8-dimethyl-[1,2,4]triazolo[4,3-a]pyridin-6-yl)-3-isopropyl-1H-indol-5-yl)oxy)methyl)azetidin-1-yl)-2-(dimethylamino) ethan-1-one] |
| 5.9 | 915 | 24.2 | Cc1cc(-c2[nH]c3ccc(OCC4CCCN(C)C4)cc3c2C(C)C)ccn1 (stereo not drawn) [Example 181, 3-isopropyl-5-((1-methylpiperidin-3-yl)methoxy)-2-(2-methylpyridin-4-yl)-1H-indole] |
| 9.2 | 4410 | 6.3 | Cc1cc(-c2[nH]c3ccc(OC4CCN(CC(C)(C)O)CC4)cc3c2C(C)C)cn2ncnc12 [Example 22, 1-(4-((3-isopropyl-2-(8-methyl-[1,2,4]triazolo[1,5-a]pyridin-6-yl)-1H-indol-5-yl)oxy)piperidin-1-yl)-2-methylpropan-2-ol] |
| 1.1 | > 50000 | 0.6 | Cc1cc(-c2[nH]c3ccc(OCC4CCN(C5COC5)CC4)cc3c2C(C)C)cn2ncnc12 [Example 43, 6-(3-isopropyl-5-((1-(oxetan-3-yl)piperidin-4-yl)methoxy)-1H-indol-2-yl)-8-methyl-[1,2,4]triazolo[1,5-a]pyridine] |
| 4.4 | 406 | 1.8 | Cc1cc(-c2[nH]c3ccc(OCC4CCNCC4)cc3c2C(C)C)cc(C)n1 [Example 6, 2-(2,6-dimethylpyridin-4-yl)-3-isopropyl-5-(piperidin-4-ylmethoxy)-1H-indole] |
| 4.2 | 218 | 22 | CCc1c(-c2ccnc(C)c2)[nH]c2ccc(OCC3CCNCC3)cc12 [Example 161, 3-ethyl-2-(2-methylpyridin-4-yl)-5-(piperidin-4-ylmethoxy)-1H-indole] |
| 2.6 | 797 | 2.1 | Cc1cc(-c2[nH]c3ccc(OCC4CCNCC4)cc3c2C(C)C)cn(C)c1=O [Example 7, 5-(3-isopropyl-5-(piperidin-4-ylmethoxy)-1H-indol-2-yl)-1,3-dimethylpyridin-2(1H)-one] |
| 28.2 | 5670 | 1.8 | Cc1cc(-c2[nH]c3ccc(O[C@H]4CCCN(CC(=O)N(C)C)C4)cc3c2C(C)C)cn2ncnc12 [Example 83, (S)-2-(3-((3-isopropyl-2-(8-methyl-[1,2,4]triazolo[1,5-a]pyridin-6-yl)-1H-indol-5-yl)oxy)piperidin-1-yl)-N,N-dimethylacetamide] |
| 5.1 | 2440 | 1.4 | Cc1cc(-c2[nH]c3ccc(OCC4CN(C(C)C)C4)cc3c2C(C)C)cn2ncnc12 [Example 58, 6-(3-isopropyl-5-((1-isopropylazetidin-3-yl)methoxy)-1H-indol-2-yl)-8-methyl-[1,2,4] triazolo[1,5-a]pyridine] |
| 27.6 | 40600 | 17.3 | Cc1cc(-c2[nH]c3ccc(O[C@H]4CCCN(CC(=O)N(C)C)C4)cc3c2C(C)C)cn(C)c1=O [Example 82, (S)-2-(3-((2-(1,5-dimethyl-6-oxo-1,6-dihydropyridin-3-yl)-3-isopropyl-1H-indol-5-yl)oxy)piperidin-1-yl)-N,N-dimethylacetamide] |
| 1290 | > 50000 | 5920 | Cc1cc(-c2[nH]c3ccc(OCc4ccccc4)cc3c2C(C)C)ccn1 [Example 165, 5-(benzyloxy)-3-isopropyl-2-(2-methylpyridin-4-yl)-1H-indole] |
| 3.2 | 447 | 8 | Cc1cc(-c2[nH]c3ccc(OC4CCN(CC(=O)N(C)C)CC4)cc3c2C(C)C)cc(C)n1 [Example 79, 2-(4-((2-(2,6-dimethylpyridin-4-yl)-3-isopropyl-1H-indol-5-yl)oxy)piperidin-1-yl)-N,N-dimethylacetamide] |
| 2.8 | 4380 | 0.4 | Cc1cc(-c2[nH]c3ccc(OCC4CCN(CC(=O)N(C)C)CC4)cc3c2C(C)C)cn2ncnc12 [Example 86, 2-(4-(((3-isopropyl-2-(8-methyl-[1,2,4]triazolo[1,5-a]pyridin-6-yl)-1H-indol-5-yl)oxy)methyl)piperidin-1-yl)-N,N-dimethylacetamide] |
| 15.3 | 939 | 166 | COc1ccc(-c2[nH]c3ccc(OC4CCNCC4)cc3c2C(C)C)cc1OC [Example 171, 2-(3,4-dimethoxyphenyl)-3-isopropyl-5-(piperidin-4-yloxy)-1H-indole] |
| 2.2 | 2200 | 9.6 | Cc1c(-c2[nH]c3ccc(OC4CCN(C(C)C)CC4)cc3c2C(C)C)cn(C)c(=O)c1Cl [Example 45] |

— patent publication US12030878B2 (BRISTOL-MYERS SQUIBB COMPANY, priority 2017, dated 2024)
